Test system: THP-1 cells
Assay: TNF-α secretion in THP-1 cells (LPS-triggered)
Format: cell-based
Conditions: Homo sapiens, 0.05 μg/ml LPS, 17 h, read-out: IC50 with respect to the secretion of TNF-α in THP-1 cells
Experimental: With the aid of this test, it is possible to test substances for their ability to inhibit secretion of TNF-α (tumour necrosis factor alpha) in THP-1 cells (human monocytic acute leukaemia cell line). […] In this test, TNF-α secretion is triggered by incubation with bacterial lipopolysaccharide (LPS).
The cells were incubated at room temperature for 15 min. 2-2.5 μl of 0.1 μg/ml LPS (Sigma, Escherichia coli 055:B5, Cat. No. L5418) dissolved in cell culture medium (final concentration 0.05 μg/ml) were then dispensed into each well. As neutral control, cells were treated with 0.05 μg/ml LPS and 1% DMSO and, as inhibitor control, with 1% DMSO only.
The amount of TNF-α was determined using the TNF-alpha HTRF Detection Kit (Cisbio, Cat. No. 62TNFPEB/C). To this end, 2 μl of the detection solution in each case, consisting of anti-TNF-α-XL665 conjugate and anti-TNF-α-cryptate conjugate dissolved in the reconstitution buffer in accordance with the manufacturer's instructions, were added for the HTRF (Homogeneous Time-Resolved Fluorescence) test. After the addition, the mixture was incubated either at room temperature for 3 h or at 4° C. overnight.
The activity of the substances is expressed as the ratio between neutral and inhibitor control in percent. The IC50 values were calculated using a 4-parameter fit.

| IC50 [nM] | SMILES |
| --- | --- |
| 0.2 | CC(C)(O)c1cc2nn(CCCO)cc2cc1NC(=O)c1cccc(C(F)F)n1 [Example 15, 6-(Difluoromethyl)-N-[6-(2-hydroxypropan-2-yl)-2-(3-hydroxypropyl)-2H-indazol-5-yl]pyridine-2-carboxamide] |
| 0.2 | Cc1cccc(C(=O)Nc2cc3cn(CCC(C)(C)O)nc3cc2C(C)(C)O)n1 [Example 20, N-[2-(3-Hydroxy-3-methylbutyl)-6-(2-hydroxypropan-2-yl)-2H-indazol-5-yl]-6-methylpyridine-2-carboxamide] |
| 0.3 | CC(C)(O)c1cc2nn(CCCOCC(F)(F)F)cc2cc1NC(=O)c1cccc(C(F)(F)F)n1 [Example 18, N-{6-(2-Hydroxypropan-2-yl)-2-[3-(2,2,2-trifluoroethoxy)propyl]-2H-indazol-5-yl}-6-(trifluoromethyl)pyridine-2-carboxamide] |
| 1.8 | CC(C)(O)c1cccc(C(=O)Nc2cc3cn(CCCC(F)(F)F)nc3cc2C(C)(C)O)n1 [Example 21, 6-(2-Hydroxypropan-2-yl)-N-[6-(2-hydroxypropan-2-yl)-2-(4,4,4-trifluorobutyl)-2H-indazol-5-yl]pyridine-2-carboxamide] |
| 0.2 | CC(C)(O)c1cc2nn(CCS(C)(=O)=O)cc2cc1NC(=O)c1cccc(C(F)F)n1 [Example 14, 6-(Difluoromethyl)-N-{6-(2-hydroxypropan-2-yl)-2-[2-(methylsulphonyl)ethyl]-2H-indazol-5-yl}pyridine-2-carboxamide] |
| 0.1 | CC(C)(O)CCn1cc2cc(NC(=O)c3cccc(C(F)F)n3)c(C(C)(C)O)cc2n1 [Example 13, 6-(Difluoromethyl)-N-[2-(3-hydroxy-3-methylbutyl)-6-(2-hydroxypropan-2-yl)-2H-indazol-5-yl]pyridine-2-carboxamide] |
| 0.2 | CC(C)(O)c1cc2nn(CCCC(F)(F)F)cc2cc1NC(=O)c1cccc(C(F)(F)F)n1 [Example 16, N-[6-(2-Hydroxypropan-2-yl)-2-(4,4,4-trifluorobutyl)-2H-indazol-5-yl]-6-(trifluoromethyl)pyridine-2-carboxamide] |
| 0.5 | CC(C)(O)c1cc2nn(CCCOC(F)(F)F)cc2cc1NC(=O)c1cccc(C(F)(F)F)n1 [Example 17, N-{6-(2-Hydroxypropan-2-yl)-2-[3-(trifluoromethoxy)propyl]-2H-indazol-5-yl}-6-(trifluoromethyl)pyridine-2-carboxamide] |
| 0.1 | Cc1nc(C(=O)Nc2cc3cn(CCC(C)(C)O)nc3cc2C(C)(C)O)ccc1F [Example 19, 5-Fluoro-N-[2-(3-hydroxy-3-methylbutyl)-6-(2-hydroxypropan-2-yl)-2H-indazol-5-yl]-6-methylpyridine-2-carboxamide] |

The next lines start with the compound.

| SMILES | IC50 [nM] |
| --- | --- |
| CC(C)(O)c1cc2nn(CCCS(C)(=O)=O)cc2cc1NC(=O)c1cccc(C(F)(F)F)n1 [Example 10, N-{6-(2-Hydroxypropan-2-yl)-2-[3-(methylsulphonyl)propyl]-2H-indazol-5-yl}-6-(trifluoromethyl)pyridine-2-carboxamide] | 1 |
| O=C(Nc1cc2cn(CC3COC3)nc2cc1CO)c1cccc(C(F)(F)F)n1 [Example 9, N-[6-(Hydroxymethyl)-2-(oxetan-3-ylmethyl)-2H-indazol-5-yl]-6-(trifluoromethyl)pyridine-2-carboxamide] | 6.5 |
| CC(C)(O)c1cc2nn(CC3COC3)cc2cc1NC(=O)c1cccc(C(F)(F)F)n1 [Example 8, N-[6-(2-Hydroxypropan-2-yl)-2-(oxetan-3-ylmethyl)-2H-indazol-5-yl]-6-(trifluoromethyl)pyridine-2-carboxamide] | 1 |
| CC(C)(O)c1cc2nn(CCO)cc2cc1NC(=O)c1cccc(C(F)(F)F)n1 [Example 5, N-[2-(2-Hydroxyethyl)-6-(2-hydroxypropan-2-yl)-2H-indazol-5-yl]-6-(trifluoromethyl)pyridine-2-carboxamide] | 5.4 |
| COCCn1cc2cc(NC(=O)c3cccc(C(F)(F)F)n3)c(CO)cc2n1 [Example 2, N-[6-(Hydroxymethyl)-2-(2-methoxyethyl)-2H-indazol-5-yl]-6-(trifluoromethyl)pyridine-2-carboxamide] | 15.1 |
| O=C(Nc1cc2cn(CCO)nc2cc1CO)c1cccc(C(F)(F)F)n1 [Example 7, N-[2-(2-Hydroxyethyl)-6-(hydroxymethyl)-2H-indazol-5-yl]-6-(trifluoromethyl)pyridine-2-carboxamide] | 16.4 |
| COCCCn1cc2cc(NC(=O)c3cccc(C(F)(F)F)n3)c(CO)cc2n1 [Example 4, N-[6-(Hydroxymethyl)-2-(3-methoxypropyl)-2H-indazol-5-yl]-6-(trifluoromethyl)pyridine-2-carboxamide] | 5.6 |
| COCCn1cc2cc(NC(=O)c3cccc(C(F)(F)F)n3)c(C(C)(C)O)cc2n1 [Example 1, N-[6-(2-Hydroxypropan-2-yl)-2-(2-methoxyethyl)-2H-indazol-5-yl]-6-(trifluoromethyl)pyridine-2-carboxamide] | 1 |
| CC(C)(O)c1cc2nn(CCCO)cc2cc1NC(=O)c1cccc(C(F)(F)F)n1 [Example 6, N-[6-(2-Hydroxypropan-2-yl)-2-(3-hydroxypropyl)-2H-indazol-5-yl]-6-(trifluoromethyl)pyridine-2-carboxamide] | 0.9 |
